Where “and” joins values, the source holds several entries; their conditions need not be identical. Identical values can stand only once.
Legend:
[1] = system: Zucker rats (insulin resistant); assay: Sensitivity of the empirical index of glucose transport into the heart, Rosiglitazone vs placebo; format: in vivo, rat; conditions: three weeks after treatment
Excerpt: (§1) This graph represents the mean obtained during the calculations of empirical descriptor in the heart, in the Zucker rat, with or without treatment with Rosiglitazone or with a placebo. The values of the descriptor are shown on the y-axis. The x-axis comprises 4 columns: the two on the left and the two on the right; the two on the left relate to the values observed for the rats at the start of observation before any injection, and the two on the right relate to the rats 21 days after injection. The white columns indicate rats having undergone an injection of Rosiglitazone, the black columns indicate rats having undergone an injection of a placebo.
The rat receives a first bolus of 6-DIG labelled with iodine 123 (about 250 μCi, this activity being counted in a Capintec CRC15R ionisation chamber supplied by Aries, France) in the basal condition. The activity of the 6-DIG is monitored with the gamma camera (field of view 10 cm, intrinsic resolution 1.8 mm, Biospace, France) in cardiac cells for 20 minutes. During these 20 minutes, the radioactivity is counted in “LIST” mode and analysed a posteriori.
The rat then receives an injection of insulin (2.5 IU/kg), performed 5 minutes before a second injection of the tracer (about 250 μCi). The activity of the 6-DIG is again monitored with the gamma camera in cardiac cells for 20 minutes. […]

[2] = system: Zucker rats (insulin resistant); assay: Sensitivity of the empirical index of glucose transport into the skeletal muscle, Rosiglitazone vs placebo; format: in vivo, rat; conditions: three weeks after treatment
Excerpt: This graph represents the mean obtained during calculations of the empirical descriptor in the skeletal muscle, in the Zucker rat, with or without treatment with Rosiglitazone or with a placebo. The values of the descriptor are shown on the y-axis. The x-axis comprises 4 columns: the two on the left and the two on the right; the two on the left relate to the values observed for the rats at the start of observation before any injection, and the two on the right relate to the rats 21 days after injection. The white columns indicate rats having undergone an injection of Rosiglitazone, the black columns indicate rats having undergone an injection of a placebo.
The rat receives a first bolus of 6-DIG labelled with iodine 123 (about 250 μCi, this activity being counted in a Capintec CRC15R ionisation chamber supplied by Aries, France) in the basal condition. The activity of the 6-DIG is monitored with the gamma camera (field of view 10 cm, intrinsic resolution 1.8 mm, Biospace, France), or with the NaI probe (Scintibloc from Crismatec (Nemours, France) and ScintiSPEC, Aries) in skeletal muscle cells (quadriceps of hind paw) for 20 minutes. During these 20 minutes, the radioactivity is counted in “LIST” mode (TD. Cradduck, Computers in Nuclear Medicine, Vol. 5; No. 1, 1985, Radiographics) and analysed a posteriori […]

[3] = system: Zucker rats (insulin resistant); assay: Sensitivity of the theoretical index k(2,1) insulin/basal of glucose transport into the heart, Rosiglitazone vs placebo; format: in vivo, rat; conditions: seven days after treatment, p<0.05, FIG. 18
Excerpt: as §1, with “during” for “during the”, “the theoretical index” for “empirical descriptor”, “index” for “descriptor”, “7” for “21”
The model utilised is a three-compartment mammillary model, derived from that used to measure the kinetic parameters of transport of 3OMG, the reference tracer for glucose transport (Cobelli, 1989; Am. J. Physiol., 257, E444-E450). It makes it possible to study the biological behaviour of the tracer after injection in the rat in vivo (Slimani L. et al., CR Biol, 2002, 325(4), 529-546). The central compartment (s1) represents the plasma. […] The radioactivity measured at the level of compartments 1 and 2 is designated respectively as q1 and q2. […]
The index characterizing the rate of glucose transport into the heart was measured twice, 7 days apart, on the same animal, treated with Rosiglitazone or a placebo. […]

[4] = Scintigraphy of 123I-6DIG in the dog: thoracic and blood activity, fasting or under GIK; format: in vivo; conditions: for slope of cardiac activity measured between 2 and 5 minutes: dog heart, FIG. 8
Experimental: This graph represents on the y-axis the variations in […], for one pixel and in the quantity (in mCi) of 6DIG injected, in relation to the x-axis which represents the data acquisition time in minutes, in the heart of a dog. The measured activity is related to the number of pixels, since when a region of interest is determined on a scintigraphy image, the number of pixels in the manually selected zone is not always the same.
Two series of data are shown; a first series of measurements indicated by linked squares represents the data recorded for a fasting animal. A second series of data, indicated by linked circles, represents the data recorded for an animal perfused with a GIK solution (Glucose/Insulin/potassium).
Animals: male beagle dogs aged about 1 year, weighing between 15 and 20 kg and fed with a standard diet Jape 21 (Ets L. Pietrement).
The dogs, premedicated with an intramuscular injection of ketamine (10 mg/kg), are anaesthetised by means of an intravenous injection of sodium thiopental (25 mg/kg). The animals are intubated and ventilated throughout the experiment and kept asleep with halothane in the ventilation circuit (oxygen-enriched air).
6DIG (20 μmol) labelled with iodine 123 (about 4 mCi) is injected intravenously. The scintigraphy images are acquired by means of a standard gamma camera equipped with a high resolution collimator and the […] is set at 160 keV with a 20% window. The variation in the thoracic radioactivity (heart, lungs and liver) with time is measured for 30 minutes post-injection, at the rate of one image per minute. The change in the blood activity is obtained by taking blood samples (1, 2, 3, 4, 5, 10. 15, 20 and 30 min p.i.) and the measurement of the radioactivity by means of a gamma counter (Packard).
Two protocols were followed, the first was implemented in fasting animals (withdrawal of food the night before the experiment, n=1) and the second was implemented in animals perfused with a GIK (Glucose/Insulin/Potassium) solution containing in particular insulin (30% glucose, 4 g/l of KCl and 80 IU/kg of insulin, n=2) and maintained throughout the experiment.

slope of cardiac activity measured between 2 and 5 minutes ([4]; fasting)	slope of cardiac activity measured between 2 and 5 minutes ([4]; under GIK perfusion)	blood activity ([4]; dog, i.v., blood samples, gamma counter)	SMILES	empirical descriptor (empirical index of rate of glucose transport into the heart) vs rats treated with placebo ([1]; p=0.006, FIG. 12)	empirical descriptor (empirical index of rate of glucose transport into the heart) vs same rats before treatment ([1]; p=0.033, FIG. 12)	empirical descriptor (empirical index of rate of glucose transport into the skeletal muscle) vs rats treated with placebo ([2]; p=0.005, FIG. 16)	empirical descriptor (empirical index of rate of glucose transport into the skeletal muscle) vs same rats before treatment ([2]; p=0.021, FIG. 16)	index characterizing the rate of glucose transport into the heart (theoretical index) vs rats treated with placebo [3]	pulmonary activity ([4]; dog, i.v., gamma camera)	activity in the liver ([4]; dog, i.v., gamma camera, 30 minutes post-injection)
–	–	–	CN(CCOc1ccc(CC2SC(=O)NC2=O)cc1)c1ccccn1 (racemic) [Rosiglitazone, (±)-5-[[4-[2-(methyl-2-pyridinylamino)ethoxy]phenyl]methyl]-2,4-thiazolidinedione]	significantly greater	significantly greater	significantly greater	significantly greater	significantly greater	–	–
0.013	0.044 and 0.022	decreases very rapidly	O=C[C@H](O)[C@@H](O)[C@H](O)[C@H](O)CI [6DIG, 6-Deoxy-6-Iodo-D-Glucose]	–	–	–	–	–	low and comparable to the background noise	greatest in the liver at 5 minutes but decreases rapidly

— patent publication US20110166428A1, “NOVEL METHOD FOR MEASURING INSULIN RESISTANCE” (UNIVERSITE JOSEPH FOURIER, priority 2008, published 2011)
